Measurements published in patent US20030232862A1 (priority 2002, published 2003).

Key:
[1] = target: cGMP PDE purified from human colon HT-29 cultured tumor cells (Homo sapiens, UniProt O76074); experiment: cGMP PDE inhibition assay; assay type: biochemical
[2] = tested on: HT-29 colon adenocarcinoma cells; experiment: Apoptosis by DNA fragmentation assay in HT-29 cells; assay type: cell-based, human; settings: Table 9 qualitative profile; also: key: −: Not active; +: Slightly active; + +: Moderately active; + + +: Strongly active; + + + +: Highly active
[3] = tested on: HT-29 cells; experiment: Apoptosis and necrosis by morphology (acridine orange/ethidium bromide) in HT-29 cells; assay type: cell-based, human; settings: HT-29, six days
From the text: Apoptosis occurs naturally during normal tissue turnover and during embryonic development of organs and limbs. Apoptosis also is induced by cytotoxic T-lymphocytes and natural killer cells, by ionizing radiation and by certain chemotherapeutic drugs. Inappropriate regulation of apoptosis is thought to play an important role in many pathological conditions including cancer, AIDS, or Alzheimer's disease, etc. Compounds can be screened for induction of apoptosis using cultures of tumor cells maintained under conditions as described above. Treatment of cells with test compounds involves either pre- or post-confluent cultures and treatment for two to seven days at various concentrations. Apoptotic cells are measured in both the attached and “floating” compartments of the cultures. […]
Reference compounds and test compounds were analyzed for their novel PDE inhibitory activity in accordance with the protocols for the assay, supra. […] Apoptotic and necrotic cell death was determined previously (Duke and Cohen, In: Current Protocols in Immunology, 3.17.1 - 3.17.16, New York, John Wiley and Sons, 1992). […]
The apoptosis inducing activity for a series of phosphodiesterase inhibitors was determined. […] Apoptosis and necrosis were determined morphologically after acridine orange and ethidium bromide labeling in accordance with the assay described, supra. […]

[4] = tested on: PKG activity in HCT116 colon cancer cells; experiment: PKG activity assay in drug-treated HCT116 cells; assay type: cell-based
From the text: To test the effect of cGMP-specific PDE inhibition on neoplasia containing the β-catenin mutation, HCT116 colon cancer cells were employed. HCT116 is known to contain the β-catenin mutation, but is known not to contain the APC mutation.
The same procedure is used to grow the HCT116 cells as is used in the SW480 procedure described above. In this experiment, only exisulind and controls were used.

[5] = tested on: β-catenin and PKG levels in SW480 cells; experiment: Western blot of β-catenin and PKG in SW480 cells; assay type: cell-based, human
Procedure: SW480 cells treated with exisulind as described previously are harvested from the microfuge tubes by rinsing once with ice-cold PBS. The cells are lysed by modified RIPA buffer for 15 minutes with agitation. The cell lysate is spun down in a cold room. The supernatants are transferred to fresh microcentrifuge tubes immediately after spinning. BioRad DC Protein Assay (Temecula, Calif.) is performed to determine the protein concentrations in samples. The samples are normalized for protein concentration, as described above.
50 μg of each sample is loaded onto a 10% SDS gel. SDS-PAGE is performed, and the proteins then are transferred to a nitrocellulose membrane. The blotted nitrocellulose membrane is blocked in freshly prepared TBST containing 5% nonfat dry milk for one hour at room temperature with constant agitation.
A goat-anti-PKG primary antibody is diluted to the recommended concentration/dilution in fresh TBST/5% nonfat dry milk. The nitrocellulose membrane is placed in the primary antibody solution and incubated one hour at room temperature with agitation. The nitrocellulose membrane is washed three times for ten minutes each with TBST. The nitrocellulose membrane is incubated in a solution containing a secondary peroxidase (POD) conjugated rabbit anti-goat antibody for 1 hour at room temperature with agitation. The nitrocellulose membrane is washed three times for ten minutes each time with TBST. The detection is performed by using Boehringer Mannheim BM blue POD substrate.
SW480 cells were treated with exisulind or vehicle (0.1% DMSO) for 48 hours. 50 μg supernatant of each cell lysate was loaded onto a 10% SDS-gel and blotted to a nitrocellulose membrane, and the membrane was probed with rabbit-anti-β-catenin and rabbit anti-PKG antibodies.
This observation was made by culturing SW480 cells with either 200, 400 or 600 μM exisulind or vehicle (0.1% DMSO). The cells are harvested 48 hours post treatment and processed for immunoblotting. Immuno-reactive protein can be detected by Western blot. […]

[6] = Clinical tolerability of exisulind; assay type: in vivo
From the text: This effect is reversible, and liver enzymes return to normal levels when the administered dose of exisulind returns to the traditionally recommended level or when treatment is discontinued. The purpose of using combinations is to allow a lower dose of each to be used.

## CC1=C(CC(=O)O)c2cc(F)ccc2/C1=C\c1ccc(S(C)(=O)=O)cc1 [Exisulind, 5-fluoro-2-methyl-1-(p-methylsulfonylbenzylidene)-3-indenylacetic acid]
[1]; Table 9 qualitative profile
  PDE Inhibition: + +
[1]; read-out: % Inhibition at 10 μM (cGMP PDE), 10 μM
  inhibition at 10 µM: 39%
[1]; read-out: IC50 for inhibition of cGMP PDE
  IC50: 56 µM
[2]
  Apoptosis: + +
[3]
  apoptotic and necrotic cell death: capable of causing apoptotic cell death without inducing necrosis
[4]
  PKG activation relative to control: PKG activation occurred
[5]; SW480, 200, 400 or 600 μM, 48 hours
  reduction of β-catenin expression compared to control: 50%
[5]; SW480, 48 hours, FIG. 19
  PKG level: increase of PKG
  β-catenin level: drop of β-catenin
[6]; 300-400 mg/day
  side effects at recommended dose: no clinically significant side effects
[6]; reversible
  effect at doses higher than the recommended therapeutic levels: elevated levels of liver enzymes
